Melting point data for two compounds are collected here from publication PMC10043937, “Pyranonaphthoquinones and Naphthoquinones from the Stem Bark of Ventilago harmandiana and Their Anti-HIV-1 Activity” (Journal of Natural Products, 2023).

For orientation: melting point means the temperature, or range, at which the solid turns liquid.

Turning to `COc1c(C)c2c(c(O)c1OC)C(=O)[C@@H]1[C@@H](C)O[C@@H](C)C[C@H]1C2=O` [Compound 3, (1R,3S,4aR,10aS)-7,8-Dimethoxy-9-hydroxy-1,3,6-trimethyl-3,4,4a,10a-tetrahydro-1H-naphtho[2,3-c]pyran-5,10-dione], the melting point lay in the range of 116 to 117 °C. For the compound `COC1=C(OC)C(=O)c2c(cc(C)c(C(C)=O)c2O)C1=O` [Compound 6, 7-Acetyl-2,3-dimethoxy-8-hydroxy-6-methylnaphthalene-1,4-dione], the melting point is 146 to 147 °C.
